Measured values from ChEMBL document CHEMBL1201862, “PubChem BioAssay data set” (2004).
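Step 1: Grow cells in 96-well plates. Step 2: Expose to compound for 48 hours at 5 concentrations. Step 3: Interpolate endpoints linearly; if unreached, use highest concentration. GI50 marks 50% less growth.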 Activity calls are given as the source filed them. No stated cut-off is given here; in the data, active = GI50 up to about 1.1 µM and inactive = higher.

Columns and labels:
Test in all cases: growth of human tumour cells (NCI), 48 h
OVCAR-3 = test system: OVCAR-3
SF-295 = test system: SF-295
MOLT-4 = test system: MOLT-4
NCI-H460 = test system: NCI-H460
Hs-578T = test system: Hs-578T
UACC-257 = test system: UACC-257
A549 = test system: A549
EKVX = test system: EKVX
SNB-19 = test system: SNB-19
SK-MEL-28 = test system: SK-MEL-28
TK-10 = test system: TK-10
SF-268 = test system: SF-268
HOP-62 = test system: HOP-62
SF-539 = test system: SF-539
786-0 = test system: 786-0
KM12 = test system: KM12
HL-60 = test system: HL-60
OVCAR-4 = test system: OVCAR-4
DU-145 = test system: DU-145
HT-29 = test system: HT-29

Row | Compound | GI50 (OVCAR-3) | GI50 (SF-295) | GI50 (MOLT-4) | GI50 (NCI-H460) | GI50 (Hs-578T) | GI50 (UACC-257) | GI50 (A549) | GI50 (EKVX) | GI50 (SNB-19) | GI50 (SK-MEL-28) | GI50 (TK-10) | GI50 (SF-268) | GI50 (HOP-62) | GI50 (SF-539) | GI50 (786-0) | GI50 (KM12) | GI50 (HL-60) | GI50 (OVCAR-4) | GI50 (DU-145) | GI50 (HT-29)
1 | Cc1ccc(S(=O)(=O)NCc2cccc([N+](=O)[O-])c2)cc1 | 72.8 µM (inactive) | > 100 µM (inactive) | 0.136 µM (active) | > 100 µM (inactive) | > 100 µM (inactive) | 75.9 µM (inactive) | > 100 µM (inactive) | > 100 µM (inactive) | > 100 µM (inactive) | > 100 µM (inactive) | > 100 µM (inactive) | > 100 µM (inactive) | > 100 µM (inactive) | > 100 µM (inactive) | > 100 µM (inactive) | > 100 µM (inactive) | 28.8 µM (inactive) | > 100 µM (inactive) | > 100 µM (inactive) | > 100 µM (inactive)
2 | COc1cc2c3c(c1)c1cc(OC)c(OC)cc1c[n+]3CC2 | 12.5 µM (inactive) | 15.5 µM (inactive) | 2 µM (inactive) | 4.32 µM (inactive) | 3.1 µM (inactive) | 18.1 µM (inactive) | > 50 µM (inactive) | 8.51 µM (inactive) | 2.49 µM (inactive) | 22.8 µM (inactive) | > 50 µM (inactive) | 0.0175 µM (active) | 5.73 µM (inactive) | 6.12 µM (inactive) | 1.61 µM (inactive) | 3.77 µM (inactive) | > 50 µM (inactive) | 15 µM (inactive) | 31.8 µM (inactive) | 23 µM (inactive)
3 | CC(=O)Nc1ccc(C2SCc3nc4ccccc4n32)cc1 (stereo not given) | > 100 µM (inactive) | 87.9 µM (inactive) | > 100 µM (inactive) | > 100 µM (inactive) | 41.9 µM (inactive) | 57.4 µM (inactive) | > 100 µM (inactive) | 87.9 µM (inactive) | > 100 µM (inactive) | > 100 µM (inactive) | 22.6 µM (inactive) | 55.2 µM (inactive) | > 100 µM (inactive) | > 100 µM (inactive) | 56.8 µM (inactive) | > 100 µM (inactive) | 82 µM (inactive) | 38.4 µM (inactive) | > 100 µM (inactive) | > 100 µM (inactive)
4 | COc1ccc2nccc(NCCCN3CCN(CCCNc4ccnc5ccc(OC)cc45)CC3)c2c1 | 1.22 µM (inactive) | 0.975 µM (active) | 0.107 µM (active) | 0.296 µM (active) | 0.237 µM (active) | 1.04 µM (active) | 0.296 µM (active) | 1.34 µM (inactive) | 0.927 µM (active) | 1.09 µM (active) | 5.31 µM (inactive) | 0.432 µM (active) | 0.966 µM (active) | 0.173 µM (active) | 0.582 µM (active) | 0.357 µM (active) | 0.0953 µM (active) | 1.04 µM (active) | 0.508 µM (active) | 0.172 µM (active)
5 | O=C1NC(=O)[C@@H](OCC2CCCCC2)[C@@H]2OCC3OC(C(O)C3O)C12 (stereo not given in full) | > 100 µM (inactive) | > 100 µM (inactive) | > 100 µM (inactive) | > 100 µM (inactive) | > 100 µM (inactive) | > 100 µM (inactive) | > 100 µM (inactive) | > 100 µM (inactive) | > 100 µM (inactive) | > 100 µM (inactive) | > 100 µM (inactive) | > 100 µM (inactive) | > 100 µM (inactive) | > 100 µM (inactive) | > 100 µM (inactive) | > 100 µM (inactive) | > 100 µM (inactive) | > 100 µM (inactive) | > 100 µM (inactive) | > 100 µM (inactive)
6 | COc1cc(S(=O)(=O)Nc2nc(-c3ccc(/N=C/c4ccccc4O)cc3)cs2)ccc1Cl | 33 µM (inactive) | 36 µM (inactive) | 27.5 µM (inactive) | 35.3 µM (inactive) | 38.2 µM (inactive) | 35.9 µM (inactive) | 41.3 µM (inactive) | 23.4 µM (inactive) | 34.2 µM (inactive) | 65.2 µM (inactive) | 74.3 µM (inactive) | 32 µM (inactive) | 40.3 µM (inactive) | 39.4 µM (inactive) | 48.2 µM (inactive) | 53.8 µM (inactive) | 35.6 µM (inactive) | 45.6 µM (inactive) | 69.2 µM (inactive) | 44 µM (inactive)
7 | CC1(C)CCC2(C(=O)OC3OC(CO)C(O)C(O)C3O)CCC3(C)C(=CCC4C5(C)CCC(OC6OC(CO)C(O)C(O)C6O)C(C)(C)C5CCC43C)C2C1 (stereo not given) | > 25 µM (inactive) | 15.2 µM (inactive) | 7.26 µM (inactive) | 6.59 µM (inactive) | 10.7 µM (inactive) | 16.9 µM (inactive) | > 25 µM (inactive) | > 25 µM (inactive) | 8.32 µM (inactive) | 6.93 µM (inactive) | > 25 µM (inactive) | 6.93 µM (inactive) | > 25 µM (inactive) | 5.4 µM (inactive) | 17.3 µM (inactive) | 6.5 µM (inactive) | 4.41 µM (inactive) | 11.8 µM (inactive) | > 25 µM (inactive) | 9.46 µM (inactive)
8 | CC(C)(C)c1ccc(-n2c3nc(=O)n(-c4ccccc4C(F)(F)F)c(=O)c-3cc3ccccc32)cc1 | 13.6 µM (inactive) | 19 µM (inactive) | 17.9 µM (inactive) | 4.25 µM (inactive) | 21.9 µM (inactive) | 19.6 µM (inactive) | 29 µM (inactive) | 18.6 µM (inactive) | 31.8 µM (inactive) | 8.26 µM (inactive) | 51.9 µM (inactive) | 30.5 µM (inactive) | 18.3 µM (inactive) | 23.8 µM (inactive) | 25.7 µM (inactive) | 16.2 µM (inactive) | 9.77 µM (inactive) | 27.5 µM (inactive) | 28.1 µM (inactive) | 8.32 µM (inactive)
9 | C[C@@H](NC(=O)c1ccc(CNC(=O)/C=C/c2cccc(Oc3ccccc3)c2)cc1)c1ccccc1 | 72.1 µM (inactive) | 26.8 µM (inactive) | > 100 µM (inactive) | 34.7 µM (inactive) | 7.33 µM (inactive) | 55.7 µM (inactive) | 14 µM (inactive) | 21.8 µM (inactive) | 16.4 µM (inactive) | > 100 µM (inactive) | 24.9 µM (inactive) | 20.8 µM (inactive) | 17.9 µM (inactive) | 12.2 µM (inactive) | 13.9 µM (inactive) | > 100 µM (inactive) | > 100 µM (inactive) | > 100 µM (inactive) | > 100 µM (inactive) | 22.6 µM (inactive)
10 | Nc1cccc(Nc2nc3ccccc3nc2NS(=O)(=O)c2ccccc2)c1 | 17.7 µM (inactive) | 27.5 µM (inactive) | 15.9 µM (inactive) | 22.1 µM (inactive) | 41.7 µM (inactive) | 31.3 µM (inactive) | 33 µM (inactive) | 43.9 µM (inactive) | 19.5 µM (inactive) | 18.3 µM (inactive) | 42 µM (inactive) | 55.2 µM (inactive) | 26.7 µM (inactive) | 19.1 µM (inactive) | 29 µM (inactive) | 18.8 µM (inactive) | 20.7 µM (inactive) | 15.6 µM (inactive) | 31.5 µM (inactive) | 27.1 µM (inactive)
11 | OCC(CCc1ccccc1I)C1=CCC2(CC1)OCCO2 (stereo not given) | 18.6 µM (inactive) | 16.4 µM (inactive) | 61.2 µM (inactive) | 26.5 µM (inactive) | 20.7 µM (inactive) | 21.6 µM (inactive) | 19.8 µM (inactive) | 21.4 µM (inactive) | 18.5 µM (inactive) | 17.7 µM (inactive) | 23.5 µM (inactive) | 17.8 µM (inactive) | 18.2 µM (inactive) | 17.6 µM (inactive) | 19.9 µM (inactive) | 16.4 µM (inactive) | 3.53 µM (inactive) | 18.9 µM (inactive) | 19.5 µM (inactive) | 18.2 µM (inactive)
